The target in the assay is T1, CAXII (Homo sapiens, UniProt O43570).
T1 construct: gene CA12
The assay is described as follows: CAXII esterase activity assay (4-nitrophenol absorbance) in MDA-MB-231 cells; […] in BT-549 cells. It counts as cell-based.

Each structure is given as a SMILES string.

A word on the IC50: it is the midpoint of a concentration-inhibition curve.

T1 sequence (O43570 25-354): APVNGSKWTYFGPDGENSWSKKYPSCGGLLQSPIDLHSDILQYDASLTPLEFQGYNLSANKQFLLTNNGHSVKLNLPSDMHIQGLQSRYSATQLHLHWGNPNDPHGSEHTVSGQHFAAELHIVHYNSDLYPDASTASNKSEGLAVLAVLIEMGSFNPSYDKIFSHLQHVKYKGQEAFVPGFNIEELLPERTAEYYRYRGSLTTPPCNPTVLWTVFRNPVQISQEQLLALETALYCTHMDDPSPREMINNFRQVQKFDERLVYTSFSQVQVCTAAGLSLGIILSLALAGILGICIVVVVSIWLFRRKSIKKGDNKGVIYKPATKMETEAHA

Consider `O=C(/C=C/c1ccc(O)cc1)OC[C@H]1O[C@@H](Oc2c(-c3ccc(O)cc3)oc3cc(O)cc(O)c3c2=O)[C@H](O)[C@@H](O)[C@@H]1O` [TS, Tiliroside], for which the IC50 was 20.9 ± 5.8 µM.

(Values after article PMC9685933, “Tiliroside suppresses triple-negative breast cancer as a multifunctional CAXII inhibitor” (Cancer Cell International, 2022).)
